Data on nine compounds can be found in PMC8443647, “Hybrid derivative of cathelicidin and human beta defensin-2 against Gram-positive bacteria: A novel approach for the treatment of bacterial keratitis” (Scientific Reports, 2021).

In brackets after ≈: the same amount, converted by molar mass. Where two headings read alike, the source gives them in different places. Peptide text beside a SMILES is read from it.

The test system of one assay is MRSA-OS. The experiment in a line: microbe, parasite or virus in culture. Format: cell-based, Staphylococcus aureus. Conditions: 24 h. The source says: (§1) A range of Gram-positive and Gram-negative laboratory- and clinical-strain bacteria were used for the experiments. These included laboratory-strain methicillin-sensitive S. aureus (MSSA; including SH1000 and ATCC SA29213), laboratory-strain MRSA (ATCC MRSA43300), clinical-strain MRSA (MRSA-OS; an IK isolate), laboratory-strain methicillin-sensitive Staphylococcus epidermidis (MSSE; ATCC SE12228), laboratory invasive-strain P. aeruginosa (PAO1-L), and clinical cytotoxic-strain P. aeruginosa (PA-OS; an IK isolate).
(§2) In vitro antimicrobial efficacy of the antibiotics and designed HDPs was determined using an established MIC assay with broth microdilution method approved by the Clinical and Laboratory Standards Institute (CLSI)[64]. Briefly, the microorganisms were cultured on Tryptone Soya Agar (TSA) and incubated overnight for 18–21 h at 37 °C. Bacterial inoculums were subsequently prepared using the direct colony suspension method. Three to five bacterial colonies were obtained from the agar plate and inoculated into an Eppendorf tube containing 1 ml of cation-adjusted Muller-Hinton broth (caMHB), consisting of 20–25 mg/L calcium ions (Ca^2+) and 10–12.5 mg/L magnesium ions (Mg^2+). The bacterial suspension was adjusted to achieve a turbidity equivalent to 0.1 OD600 or 0.5 MacFarland, containing ~ 1.5 × 10^8 colony-forming unit (CFU)/ml, which was then further diluted in 1:150 in caMHB to reach a final bacterial concentration of ~ 1 × 10^6 colony forming units (CFU)/ml. Each treatment (peptide or antibiotic) was prepared in 1:2 serial dilution in 96-well polypropylene microplates (with a final treatment volume of 50 μl per well), followed by the addition of 50 μl of 1 × 10^6 CFU/ml bacteria into each well (with a final bacterial concentration of 5 × 10^5 CFU/ml).

Another assay deals with S. aureus SH1000. The experiment in a line: microbe, parasite or virus in culture. Format: cell-based, Staphylococcus aureus.
Excerpt: as §1, §2

For a further assay, the system named is P. aeruginosa PAO1-L. Description: microbe, parasite or virus in culture. It is filed as cell-based.
Excerpt: as §1, §2

A further assay relates to P. aeruginosa PA-OS. Description: microbe, parasite or virus in culture. Format: cell-based. Conditions: PA-OS, 24 h.
Excerpt: as §1, §2

Assay [1] has as its system human corneal epithelial cells (HCE-2). The experiment in a line: cells. Conditions: 3 h. It is filed as cell-based. The procedure: Cell viability and cytotoxicity of antibiotics and peptides were determined against human corneal epithelial cells (HCE-2, CRL-11135, ATCC, Manassas, Virginia, USA) using cell-counting-kit-8 (CCK-8) assay (Sigma Aldrich, Merck Life Science UK Limited, Dorset, UK) and lactate dehydrogenase (LDH) assay (ThermoFisher Scientific, UK), respectively, as per manufacturer’s guidelines. HCE-2 cells were cultured and seeded into a 96-well plate at a density of 7.5 × 10^3 cells/well and allowed to attach overnight and grew to 80–90% confluency in keratinocyte serum free medium (KSFM) supplemented with human recombinant epidermal growth factor, bovine pituitary extract, hydrocortisone, and insulin. Once the confluency reached 80–90%, the cells were incubated with treatment for 3 h before OD450 measurement was taken using BMG Clariostar microplate reader (BMG Labtech Ltd., Aylesbury, UK). Appropriate controls were used, including 0.1% Triton X-100 as positive control and KSFM as negative control. Cell viability was calculated using the following formula: [([…]) × 100; I = intensity] and cytotoxicity was calculated using the following formula: [((Itreatment – INC)/(IPC – INC)) × 100].

Where [2] appears, read: 0 mM NaCl, caMHB, read-out: MIC.
Setting [3] is: 0 mM NaCl, caMHB, 24 h, read-out: MIC.

For the compound `NCCCC[C@H](NC(=O)[C@H](CS)NC(=O)[C@H](CS)NC(=O)[C@@H](N)CCCCN)C(=O)N[C@@H](CCCCN)C(=O)N1CCC[C@H]1C(=O)O` [BD2-6, KCCKKP] (H-KCCKKP-OH; N-terminus and C-terminus assumed), the MIC with MRSA-OS (setting [2]) is over 283.3 µM; with MRSA-OS (-OS), over 200 µg/mL; in the assay on S. aureus SH1000 (setting [3]), over 283.3 µM; with S. aureus SH1000 (SH1000, 24 h) it was over 200 µg/mL; in the assay on P. aeruginosa PAO1-L (setting [3]), over 283.3 µM; in the assay on P. aeruginosa PAO1-L (PAO1, 24 h) it was over 200 µg/mL.
For `N=C(N)NCCC[C@H](NC(=O)CNC(=O)[C@@H](N)CCCNC(=N)N)C(=O)N[C@@H](CCCCN)C(=O)N[C@@H](CS)C(=O)N[C@@H](CS)C(=O)N[C@@H](CCCNC(=N)N)C(=O)N[C@@H](CCCNC(=N)N)C(=O)N[C@@H](CCCCN)C(=O)N[C@@H](CCCCN)C(=O)O` [BD3-10, RGRKCCRRKK] (H-RGRKCCRRKK-OH; N-terminus and C-terminus assumed), the MIC with MRSA-OS (setting [2]) is over 154.9 µM; in the assay on MRSA-OS (-OS) it was over 200 µg/mL; in the assay with S. aureus SH1000 (setting [3]) it was over 154.9 µM; in the assay with S. aureus SH1000 (SH1000, 24 h), over 200 µg/mL; in the assay with P. aeruginosa PAO1-L (setting [3]) it was over 154.9 µM; in the assay on P. aeruginosa PAO1-L (PAO1, 24 h) it was over 200 µg/mL.
Regarding `CC[C@H](C)[C@H](NC(=O)[C@H](CCCNC(=N)N)NC(=O)[C@H](CCC(N)=O)NC(=O)[C@@H](NC(=O)[C@@H](NC(=O)[C@H](CCCNC(=N)N)NC(=O)[C@@H](N)CCCCN)[C@@H](C)CC)C(C)C)C(=O)N[C@@H](CCCCN)C(=O)N[C@@H](CC(=O)O)C(=O)N[C@@H](Cc1ccccc1)C(=O)N[C@@H](CC(C)C)C(=O)N[C@@H](CCCNC(=N)N)C(=O)O` [Ca12, KRIVQRIKDF LR] (H-KRIVQRIKDFLR-OH; N-terminus and C-terminus assumed), the MIC in the assay with MRSA-OS (-OS) was over 200 µg/mL; in the assay on S. aureus SH1000 (SH1000, 24 h) it was over 200 µg/mL; against P. aeruginosa PAO1-L (PAO1, 24 h) it was 200 µg/mL.
On to `CC[C@H](C)[C@H](NC(=O)[C@H](CCCNC(=N)N)NC(=O)[C@H](CCC(N)=O)NC(=O)[C@@H](NC(=O)[C@@H](NC(=O)[C@H](CCCNC(=N)N)NC(=O)[C@@H](N)CCCCN)[C@@H](C)CC)C(C)C)C(=O)N[C@@H](CCCCN)C(=O)N[C@@H](CC(=O)O)C(=O)N[C@@H](Cc1ccccc1)C(=O)N[C@@H](CC(C)C)C(=O)N[C@@H](CCCNC(=N)N)C(=O)N[C@@H](CCCNC(=N)N)C(=O)NCC(=O)N[C@@H](CCCCN)C(=O)N[C@@H](C)C(=O)N[C@@H](CCCCN)C(=O)O` [CaD1, KRIVQRIKDF LRRGKAK] (H-KRIVQRIKDFLRRGKAK-OH; N-terminus and C-terminus assumed), for which the MIC is over 200 µg/mL in the assay on MRSA-OS (-OS); over 200 µg/mL against S. aureus SH1000 (SH1000, 24 h); over 200 µg/mL against P. aeruginosa PAO1-L (PAO1, 24 h).
Turning to `CC[C@H](C)[C@H](NC(=O)[C@@H](N)CCCNC(=N)N)C(=O)N[C@@H](CCCCN)C(=O)N[C@@H](CC(=O)O)C(=O)N[C@@H](Cc1ccccc1)C(=O)N[C@@H](CC(C)C)C(=O)N[C@@H](CCCNC(=N)N)C(=O)N[C@@H](CC(N)=O)C(=O)NCC(=O)N[C@@H](CCCNC(=N)N)C(=O)N[C@@H](CCCCN)C(=O)N[C@@H](CS)C(=O)N[C@@H](CS)C(=O)N[C@@H](CCCNC(=N)N)C(=O)N[C@@H](CCCNC(=N)N)C(=O)N[C@@H](CCCCN)C(=O)N[C@@H](CCCCN)C(=O)O` [CaD3, RIKDFLRNGR KCCRRKK] (H-RIKDFLRNGRKCCRRKK-OH; N-terminus and C-terminus assumed), the MIC is over 91.8 µM in the assay with MRSA-OS (setting [2]); over 200 µg/mL with MRSA-OS (-OS); over 91.8 µM in the assay on S. aureus SH1000 (setting [3]); over 200 µg/mL in the assay on S. aureus SH1000 (SH1000, 24 h); over 91.8 µM with P. aeruginosa PAO1-L (setting [3]); over 200 µg/mL in the assay on P. aeruginosa PAO1-L (PAO1, 24 h).
On to `CC[C@H](C)[C@H](NC(=O)[C@H](CCCNC(=N)N)NC(=O)[C@H](CCC(N)=O)NC(=O)[C@@H](NC(=O)[C@@H](NC(=O)[C@H](CCCNC(=N)N)NC(=O)[C@@H](N)CCCCN)[C@@H](C)CC)C(C)C)C(=O)N[C@@H](CCCCN)C(=O)N[C@@H](CC(=O)O)C(=O)N[C@@H](Cc1ccccc1)C(=O)N[C@@H](CC(C)C)C(=O)N[C@@H](CCCNC(=N)N)C(=O)N[C@@H](CCCCN)C(=O)N[C@@H](C)C(=O)N[C@@H](CS)C(=O)N[C@@H](CCCCN)C(=O)N[C@@H](CCCCN)C(=O)N1CCC[C@H]1C(=O)O` [CaD21, KRIVQRIKDF LRKACKKP] (H-KRIVQRIKDFLRKACKKP-OH; N-terminus and C-terminus assumed), for which the MIC is over 200 µg/mL with MRSA-OS (-OS); 200 µg/mL against S. aureus SH1000 (SH1000, 24 h); 200 µg/mL (≈ 89.8 µM) against P. aeruginosa PA-OS. Also, in assay [1], the “IC50 (concentration causing 50% inhibition of cell viability)” value was over 200 µg/mL.
Consider `C[C@H](NC(=O)[C@H](CCCCN)NC(=O)CNC(=O)[C@@H](N)CCCNC(=N)N)C(=O)N[C@@H](CCCCN)C(=O)N[C@@H](CS)C(=O)N[C@@H](CS)C(=O)N[C@@H](CCCCN)C(=O)NCC(=O)N[C@H](C(=O)N[C@@H](CCCCN)C(=O)N[C@@H](CS)C(=O)N[C@@H](CS)C(=O)N[C@@H](CCCCN)C(=O)N[C@@H](CCCCN)C(=O)N1CCC[C@H]1C(=O)O)[C@@H](C)O` [DD12, RGKAKCCKGT KCCKKP] (H-RGKAKCCKGTKCCKKP-OH; N-terminus and C-terminus assumed), for which the MIC is over 115 µM in the assay with MRSA-OS (setting [2]); over 200 µg/mL in the assay with MRSA-OS (-OS); over 115 µM in the assay on S. aureus SH1000 (setting [3]); over 200 µg/mL in the assay on S. aureus SH1000 (SH1000, 24 h); over 115 µM with P. aeruginosa PAO1-L (setting [3]); over 200 µg/mL with P. aeruginosa PAO1-L (PAO1, 24 h).
Regarding `C[C@H](NC(=O)[C@H](CCCCN)NC(=O)CNC(=O)[C@@H](N)CCCNC(=N)N)C(=O)N[C@@H](CCCCN)C(=O)N[C@@H](CS)C(=O)N[C@@H](CS)C(=O)N[C@@H](CCCCN)C(=O)N[C@@H](CCCNC(=N)N)C(=O)NCC(=O)N[C@@H](CCCNC(=N)N)C(=O)N[C@@H](CCCCN)C(=O)N[C@@H](CS)C(=O)N[C@@H](CS)C(=O)N[C@@H](CCCNC(=N)N)C(=O)N[C@@H](CCCNC(=N)N)C(=O)N[C@@H](CCCCN)C(=O)N[C@@H](CCCCN)C(=O)O` [DD13, RGKAKCCKRG RKCCRRKK] (H-RGKAKCCKRGRKCCRRKK-OH; N-terminus and C-terminus assumed), the MIC was over 92.3 µM with MRSA-OS (setting [2]); over 200 µg/mL against MRSA-OS (-OS); over 92.3 µM in the assay with S. aureus SH1000 (setting [3]); over 200 µg/mL in the assay on S. aureus SH1000 (SH1000, 24 h); over 92.3 µM in the assay with P. aeruginosa PAO1-L (setting [3]); over 200 µg/mL in the assay with P. aeruginosa PAO1-L (PAO1, 24 h).
Regarding `N=C(N)NCCC[C@H](NC(=O)CNC(=O)[C@@H](N)CCCNC(=N)N)C(=O)N[C@@H](CCCCN)C(=O)N[C@@H](CS)C(=O)N[C@@H](CS)C(=O)N[C@@H](CCCNC(=N)N)C(=O)N[C@@H](CCCNC(=N)N)C(=O)N[C@@H](CCCCN)C(=O)N[C@@H](CCCCN)C(=O)N[C@@H](CCCCN)C(=O)N[C@@H](CS)C(=O)N[C@@H](CS)C(=O)N[C@@H](CCCCN)C(=O)N[C@@H](CCCCN)C(=O)N1CCC[C@H]1C(=O)O` [DD32, RGRKCCRRKK KCCKKP] (H-RGRKCCRRKKKCCKKP-OH; N-terminus and C-terminus assumed), the MIC in the assay with MRSA-OS (setting [2]) is over 101 µM; in the assay with S. aureus SH1000 (setting [3]) it was over 101 µM; in the assay with S. aureus SH1000 (SH1000, 24 h) it was over 200 µg/mL; in the assay on P. aeruginosa PAO1-L (setting [3]) it was over 101 µM; against P. aeruginosa PAO1-L (PAO1, 24 h), over 200 µg/mL.
